Here are results for 1 compound from US4528020A, “Urease inhibited urea based fertilizer compositions” (Allied Corporation, priority 1983, dated 1985).

The test concerns the target jack bean urease (Canavalia ensiformis, UniProt P07374). Put plainly: Urease inhibition in solution (modified Bremner procedure, purified jack bean urease in aqueous solution). It is filed as biochemical. Conditions: commercial purified jack bean urease. As to the method:
Efficacy tests were conducted with jack bean urease. The procedure of Bremner (See. L. A. Douglas, J. M. Bremner, Soil Biology Biochem., 3, 859-859 (1970), and references cited therein was modified by replacing the soil as the source of urease with commercial purified jack bean urease. The incubation then proceeds in aqueous solution. The results are set forth in the following Table I.

jack bean urease, sequence (P07374 whole entry, looked up): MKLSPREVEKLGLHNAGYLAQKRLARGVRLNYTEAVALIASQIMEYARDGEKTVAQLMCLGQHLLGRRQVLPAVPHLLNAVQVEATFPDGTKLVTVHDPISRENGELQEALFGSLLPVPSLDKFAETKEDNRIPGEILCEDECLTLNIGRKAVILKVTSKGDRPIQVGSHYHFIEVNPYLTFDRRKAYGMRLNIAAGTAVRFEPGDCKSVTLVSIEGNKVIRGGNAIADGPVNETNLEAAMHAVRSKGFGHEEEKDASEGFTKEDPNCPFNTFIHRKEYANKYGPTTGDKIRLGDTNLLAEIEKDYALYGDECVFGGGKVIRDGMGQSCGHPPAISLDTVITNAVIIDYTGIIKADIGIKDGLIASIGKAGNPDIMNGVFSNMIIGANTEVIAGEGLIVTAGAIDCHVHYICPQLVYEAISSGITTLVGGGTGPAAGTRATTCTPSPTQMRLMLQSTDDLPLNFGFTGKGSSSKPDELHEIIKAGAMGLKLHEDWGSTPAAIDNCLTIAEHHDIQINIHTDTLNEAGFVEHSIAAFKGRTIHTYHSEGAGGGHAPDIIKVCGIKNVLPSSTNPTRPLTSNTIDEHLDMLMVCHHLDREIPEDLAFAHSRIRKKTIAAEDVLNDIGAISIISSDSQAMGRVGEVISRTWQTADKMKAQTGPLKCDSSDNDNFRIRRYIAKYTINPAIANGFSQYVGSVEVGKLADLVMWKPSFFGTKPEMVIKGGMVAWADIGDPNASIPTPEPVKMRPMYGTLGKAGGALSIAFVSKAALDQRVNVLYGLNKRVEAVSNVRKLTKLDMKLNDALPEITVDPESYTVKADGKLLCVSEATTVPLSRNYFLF

Regarding `NP(N)(=O)NC(=O)c1ccc(N2C(=O)C=CC2=O)cc1` [N-(diaminophosphinyl)-4-(1'-maleimido)benzamide], the inhibition at 1 µM (compound at 10^-6 M, read-out: % Inhibition at Specific Concentration 10^-6 M) is 59%. In addition, the inhibition at 0.1 µM (compound at 10^-7 M, read-out: % Inhibition at Specific Concentration 10^-7 M) stood at 8%.
